# Data reported in patent publication US9951314B2, “Differentiation of human embryonic stem cells” (Janssen Biotech, Inc., priority 2010, dated 2018).
# Assays:
# [1] = system: human embryonic stem (hES) cell line H1; settings: MCDB-131 with 3.7 g/l versus 1 g/l bicarbonate
# Method: Cells of the human embryonic stem (hES) cell line H1 at passage 46 (p46) were seeded as cell colonies to [sequence] (1:30 dilution) coated dishes at a 1 to 3 passage ratio by lifting cells with Dispase (Catalog #17105-041, Invitrogen, CA) and plating the cells in MEF-CM with 20 ng/ml of FGF2. The media was changed daily with fresh MEF-CM with 20 ng/ml of FGF2, until initiation of differentiation into definitive endoderm (DE) as follows: • a. MCDB-131 (Catalog #10372-019, Invitrogen, CA) medium supplemented with 2% fatty acid-free BSA (Catalog #68700, Proliant, IA), 1× GlutaMax™ (Catalog #35050-079, Invitrogen, Ca) and 100 ng/ml activin A (R&D Systems, MN) plus 20 ng/ml WNT-3a (Catalog #1324-WN-002, R&D Systems, MN) for one day, followed by treatment with MCDB-131 supplemented with 2% BSA, GlutaMax™, and 100 ng/ml activin A each day for an additional three days; or • b.
# At day 4, samples were collected for FACS and gene expression analysis using real-time PCR, and counted by ViaCount® (Guava®, Millipore, Billerica, Mass.).
# [2] = system: human embryonic stem cell line H1; assay: Differentiation of H1 cells to definitive endoderm in MCDB-131 with added glucose; FACS, real-time PCR, ViaCount at day 4 (Example 2); assay type: cell-based
# Method: Cells of the human embryonic stem cell line H1 at passage 41 (p41) were lifted by TrypLE (Catalog #12604-013, Invitrogen, CA) and seeded as single cells at a density of 100,000 cells/cm^2 on MATRIGEL® coated dishes (1:30 dilution) in MEF-CM (mouse embryonic fibroblast conditioned media) supplemented with 20 ng/ml of FGF2 (Catalog #100-18B, PeproTech, NJ) and 10 μM of Y-27632 (a Rho Kinase Inhibitor, Catalog #Y0503, Sigma, MO). […] The cultures were differentiated into cells expressing markers characteristic of the definitive endoderm lineage 72 hrs post as follows: • a. […] MCDB-131 medium supplemented with 2% BSA, sodium bicarbonate, GlutaMax™, 100 ng/ml activin A, and either 0, 5, 10, 15, 20, or 25 mM of glucose for an additional three days.
# However, these increases in cell number and CXCR4 were offset by a reduction in total cell viability (FIG. 2B).
# These clustered cells were subsequently less evenly dispersed on the culture surface than populations of cells cultured in the basal level of glucose.
# [3] = system: human embryonic stem cell line H1; assay: Differentiation of H1 cells to definitive endoderm in DMEM with low or high glucose; flow cytometry and qRT-PCR (Example 2); assay type: cell-based; settings: for cells positive for CXCR4: flow cytometry
# Method: Similar glucose related effects on differentiation were also observed in cultures differentiated with DMEM containing either 5.5 mM (low) or 25 mM (high) glucose concentration (Cat #s 10567-014 and 21063-029, Invitrogen, CA). As described above, for controls, cells were seeded as single cells, cultured 3 days in MEF conditioned media and differentiated in MCDB-131 with 5.5 mM or 25 mM glucose supplemented media, or in DMEM high or low glucose media supplemented with 2% fatty acid free BSA, 100 ng/ml activin A, and 20 ng/ml WNT-3a on the first day, and 2% fatty acid free BSA and 100 ng/ml activin A for the next three days with daily media change. Similar to results with MCDB-131 media, where elevated glucose inhibits definitive endoderm formation as compared to low glucose media treated cells, we observed that a high glucose concentration in DMEM reduced hES cell differentiation. By flow cytometry, following differentiation to definitive endoderm, 88.6% of cells were positive for CXCR4 in media containing 5.5 mM glucose versus 80% CXCR4 positive cells in media containing 25 mM glucose. Additionally, markers of differentiation to definitive endoderm as measured by qRT-PCR (SOX17) were decreased while markers of undifferentiated cells (OCT4) or alternative differentiation fates (CDX2) were increased (FIG. 5) in cells fed media containing high glucose versus those fed low glucose media. This effect was due at least in part to the pH of the media as we noted that over the four day differentiation, media pH dropped after 48 hours of differentiation day. Furthermore, the higher the starting and ending pH of culture media (8.1>pH>7.6) (FIG. 6) during definitive endoderm formation, the more complete the conversion to definitive endoderm.
# [4] = increased glucose concentration, clustered cells, real-time PCR
# [5] = high glucose versus low glucose media
Compound,CD9 expression levels [1],CXCR4 expression [1],"CXCR4 expression ([2]; additional 5 mM glucose (10.5 mM final), MCDB-131, day 4)","cell number ([2]; additional 10 mM glucose (15.5 mM final), MCDB-131, day 4)","SOX17 positive cells ([2]; basal level of glucose (5.5 mM), MCDB-131)","CD9 expression [2, 4]","MNX1 (HLXB9) gene expression [2, 4]","OCT4 expression [2, 4]","SOX7 expression [2, 4]","total cell viability ([2]; supplemented glucose (10.5 to 15.5 mM final), MCDB-131, day 4)","CDX2 expression (qRT-PCR) [3, 5]","OCT4 expression (qRT-PCR) [3, 5]","SOX17 expression (qRT-PCR) [3, 5]",cells positive for CXCR4 ([3]; media containing 5.5 mM glucose),cells positive for CXCR4 ([3]; media containing 25 mM glucose)
O=C([O-])O.[Na+] [Sodium Bicarbonate],lower,significantly higher,,,,,,,,,,,,,
O=C[C@H](O)[C@@H](O)[C@H](O)[C@H](O)CO [glucose],,,modest increase,modest increase,almost every cell in the culture was SOX17 positive,slight increase,decrease,slight increase,slight increase,reduction,increased,increased,decreased,88.6%,80%
